# Experiments:
# [1] = system: HeLa cells; test: Cellular uptake by flow cytometry; assay type: cell-based; details: 1 µM CF-labeled peptide, serum-free medium, 37 °C; for Cellular uptake into HeLa cells, 30 min: triplicate, n = 3
# Experimental: HeLa cells were seeded onto 24-well plates (Sarstedt, Nümbrecht, Germany, 100,000 cells per well, respectively). After reaching 80–90% confluency, medium was removed, and cells were incubated with 1 µM CF-labeled peptide solution in serum-free medium for either 30 min or 2 h at 37 °C. The peptide solution was removed, cells were washed twice with PBS, and trypsinized for 5 min. Detached cells were resuspended in full medium (phenol red free) and afterwards analyzed using a guava easycyte HT flow cytometer (Merck, Darmstadt, Germany).
# [2] = system: HeLa cells; test: Transfection with mCherry plasmid; assay type: cell-based; details: peptide:plasmid 3:1 (250 ng plasmid), 1 µM peptide, 2 h, inspected 72 h after transfection, fluorescence microscopy
# Experimental: HeLa cells were seeded into 8-well plates (ibidi, Gräfelfing, Germany, 8000 cells per well, respectively) and grown to 30–40% confluency. Peptides and mCherry plasmid were co-incubated for 1 h at 37 °C at a ratio of 3:1 in serum-free medium (mCherry plasmid: 250 ng). Afterwards, the medium was removed, and the solution was added to the cells. Additional serum-free medium was added to ensure a final peptide concentration of 1 µM. Cells were incubated for 2 h with the peptides and peptide/plasmid solution at 37 °C, respectively. As a positive control, Lipofectamine 2000 (Invitrogen, Thermo Scientific, Waltham, MA, USA) was used and as a negative control, cells were treated with plasmid only. Afterwards, a washout was performed, and cells were washed once with 150 µL of serum-free medium. In total, 300 µL of medium with serum were added and cells were grown for 72 h at 37 °C. Ten minutes prior to microscopic analysis, 0.6 µL of Hoechst33342 were added. Then, cells were washed twice with 150 µL of serum-free medium. In total, 300 µL of serum-supplemented medium were added and cells analyzed using a BZ-X800E microscope (Keyence, Osaka, Japan).
# [3] = system: HeLa cells; test: Cell viability assay (resazurin); assay type: cell-based; details: 37 °C, serum-free medium, 125 nM–100 µM, relative to untreated cells
# Experimental: In total, 17.000 HeLa cells per well were seeded onto 96-well plates (Sarstedt, Nümbrecht, Germany). After confluency of 80–90% was reached, the growth medium was removed, and cells were incubated with 100 µL of peptide solution of different concentrations (125 nM–100 μM in serum-free medium) for 24 h at 37 °C. For a positive control, cells were treated with 70% EtOH for 10 min. Cells were washed with serum-free medium and incubated with 10% (v/v) resazurin (Sigma-Aldrich, Merck group: Darmstadt, Germany) in serum-free medium for 1.5 h at 37 °C. Cell viability was determined by measurement of the resorufin product at 595 nm (λex = 550 nm) on a Tecan infinite M200 plate reader (Tecan Group AG, Männedorf, Switzerland). Viability was calculated from the fluorescence values of treated cells in relation to untreated cells.
# [4] = system: HeLa cells; test: Proliferation assay, co-incubation with Daunorubicin; assay type: cell-based; details: 2 h, washout, 72 h growth, resazurin; for Effect on cytotoxicity of Dau (co-incubation): 1 µM peptide with 100 nM or 1 µM Daunorubicin
# Experimental: In total, 3000 HeLa cells per well were seeded onto 96-well plates (Sarstedt, Nümbrecht, Germany). When a confluency of 30–40% was reached, medium was removed and cells were incubated with peptides and Daunorubicin at different concentrations (1 µM peptide concentration and 100 nM or 1 µM Daunorubicin in serum-free medium) for 2 h at 37 °C. Afterwards, a washout was performed, and cells were washed once with 100 µL of serum-free medium. Then, 200 µL of medium with serum were added and cells were grown for 72 h at 37 °C. As a positive control, cells were treated with 70% EtOH for 10 min. Afterwards, cells were covered with 10% (v/v) resazurin (Sigma-Aldrich, Merck group: Darmstadt, Germany) in serum-free medium for 1.5 h at 37 °C. The cell viability of treated cells was determined relative to that of untreated cells by measurement of the resorufin product at 595 nm (λex = 550 nm) on a Tecan infinite M200 plate reader (Tecan Group AG, Männedorf, Switzerland). Viability was calculated from the fluorescence values of treated cells in relation to untreated cells.
# [5] = Circular dichroism spectroscopy (alpha-helical content, R-value); assay type: physicochemical; details: for % of alpha helix, 50% TFE / % of alpha helix, Phosphate Buffer: CD, calculated per ref 31; for % of alpha helix, 50% TFE: 20 µM peptide in 10 mM phosphate buffer (pH 7.0) with 50% TFE (v/v); for R-value, 50% TFE: 20 µM peptide in 10 mM phosphate buffer (pH 7.0) with 50% TFE
# Experimental: Conjugates were dissolved in 10 mM phosphate buffer (pH 7.0), either alone or supplemented with 50% TFE (v/v), to a final concentration of 20 µM. CD spectra of all conjugates were recorded from 180–260 nm (0.5 nm intervals) on a J-715 spectropolarimeter (JASCO, Pfungstadt, Germany) in an N2 atmosphere.
# To find out more, we performed CD spectroscopy for all peptides solved either in phosphate buffer or in phosphate buffer supplemented with trifluoroethanol (TFE), respectively. All conjugates and sC18 adopted an alpha-helix, when present in phosphate buffer with TFE (Figure S20). On the other hand, when CB-conjugates were solved in phosphate buffer only (Figure 1C), some of them directly formed distinct secondary structures. […] Taking this observation into account, we concluded that the number of CB moieties actually promoted the formation of alpha-helical structures. This effect might be further explained by the helical wheel projection of each conjugate showing that the hydrophobic face of the peptide was clearly enlarged when three or more CB units were attached (see Figure S21). […]
# [6] = system: human red blood cells; test: Hemolysis assay; assay type: cell-based; details: human RBCs 5% (v/v in PBS), 37 °C, up to 25 µM peptide, absorption at 560 nm, normalized to Triton-x-100 control, triplicate, n = 2
# Experimental: Human red blood cells were washed five times with PBS (4 °C, 3000× g, 5 min) and diluted to 5% (v/v in PBS). In total, 100 µL of this solution were transferred into a fresh 96-well plate. In total, 50 µL of peptide solution were added and gently resuspended. Red blood cells were incubated for either 1 or 24 h at 37 °C and 5% CO2, respectively. In total, 50 µL of 10% Triton-x-100 were added 10 min prior to the end of the incubation time and served as a positive control. After incubation, cells were centrifuged (r.t., 2500× g, 3 min). The supernatant was carefully transferred into a fresh 96-well plate and the absorption at 560 nm was measured on a Tecan infinite M200 plate reader (Tecan Group AG, Männedorf, Switzerland). The measured absorption referred to the hemoglobin concentration.
# Next, we incubated human red blood cells (RBCs) with different concentrations of CB-sC18 conjugates at 37 °C for 1 or 24 h, respectively. Since their cell membranes are mainly composed of neutral lipids, RBCs serve as an excellent biological model for the lytic activity of a peptide. […] For sC18, this agreed with the detected low activity when in contact with zwitterionic LUVs. […] The same activity profile was observed when incubating peptide conjugates with RBCs for only one hour (Figure S30), whereas the effects started at concentrations higher than 5 µM. […]
# [7] = Critical micelle concentration (CMC) determination by UV-VIS; assay type: physicochemical; details: peptide in water, 1–200 µM; UV absorbance at 255 nm plotted against logarithm of peptide concentration, intersection point of two lines
# Experimental: Peptide conjugates were dissolved in water and different concentrations (1–200 µM) were prepared. UV-VIS spectra ranging from 200–700 nm were recorded using a 1 cm path length quartz cuvette in a Spectroquant Pharo 300 photometer (Merck, Darmstadt, Germany). The absorbance at 255 nm was plotted against the logarithm of the peptide concentration. The intersection point of two lines was determined as CMC.
# Since this effect was obviously dependent on the hydrophobic nature of the conjugates, we were then interested in whether they would also self-assemble and form nanostructures, such as micelles or fibrils. An easy to apply and fast method makes use of changes in spectroscopic properties associated with micelle formation. For this, one measures the UV absorbance at a specific wavelength as a function of the concentration. Because aggregates like micelles and free molecule species contribute to a different extent to the absorbed UV light, an abrupt change of the slope occurs above a certain point. The corresponding concentration is defined as the critical micelle concentration (CMC). We measured the UV-VIS spectra of all CB-sC18 conjugates and observed for all an additional concentration-dependent maximum at 255 nm (Figure 1A,B and Table 2), whereas this maximum was not detected for meta-carborane-1-carboxylic acid (Figure S14) or sC18 alone (Figure S15).
# Thus, we hypothesized this maximum as evidence for a possible self-assembly, and by plotting the absorbance at 255 nm against the logarithm of the peptide concentration, we assigned the intersection point as CMC.
# [8] = CF-leakage assay, zwitterionic LUVs; details: 1 µM peptide, 25 °C, 90 min; fluorescence, normalized to Triton x-100; duplicate, n = 2
# Experimental: (§1) Large unilamellar vesicles (LUVs) were prepared by dissolving different lipids in CHCl3, to reach the desired compositions (lipids were purchased from Avanti Polar Lipids, Inc., Alabaster, AL, USA). To remove the solvent, the mixture was placed into a round-bottomed flask on ice and the solvent was evaporated under reduced pressure for 20 min at 40 °C and afterwards under vacuum for another 5 min. The dried lipid film was then hydrated with HKS buffer (25 mM HEPES, 150 mM KCl, pH 7.4, 10% sucrose (w/v)), supplemented with 100 mM 5(6)-carboxyfluorescein (CF), and homogenized for 5 min at 45 °C to form liposomes (final concentration: 8 mM). The resulting multilamellar vesicle dispersion underwent 10 freeze/thawing cycles and was passed 21 times through a mini extruder (0.4 µm polycarbonate treck-etch membrane; Avanti Polar Lipids, Inc., Alabaster, AL, USA). External CF was removed by size exclusion chromatography (PD10 column, GE Healthcare, Chicago, IL, USA). Peptides were added to the LUVs and the CF release was monitored by measuring the increased fluorescence intensity on a plate reader (Biotek, Winooski, VT, USA). […]
# (§2) Our results thus far inspired us to investigate how the novel CB-conjugates would perform in a lipid environment. […] Both lipid systems were additionally loaded with CF in order to monitor membrane leakage via fluorescence dye outflow.
# [9] = CF-leakage assay, negatively charged LUVs; details: 1 µM peptide, 25 °C, 90 min; fluorescence, normalized to Triton x-100; duplicate, n = 2
# Experimental: as §1, §2
# [10] = 20 µM peptide in 10 mM phosphate buffer (pH 7.0)
# [11] = ratio between the molar ellipticity values at 222 and 208 nm
"Cellular uptake into HeLa cells, 30 min [1]","% of alpha helix, 50% TFE [5] [%]","% of alpha helix, Phosphate Buffer [5, 10] [%]","R-value, 50% TFE [5, 11]","Cellular uptake into HeLa cells, 2 h ([1]; 2 h)",CMC [7] [µM],"R-value, Phosphate Buffer ([5]; ratio between the molar ellipticity values at 222 and 208 nm, 20 µM peptide in 10 mM phosphate buffer (pH 7.0))",Substance,mCherry pDNA transfection (red fluorescent signal) [2],"Cytotoxicity towards HeLa cells, 24 h [3]",Effect on cytotoxicity of Dau (co-incubation) [4],"Hemolytic activity towards RBCs, 24 h [6]",CF release (leakage) from zwitterionic LUVs [8],Effect on daunorubicin activity at 100 nM Dau ([4]; 1 µM peptide with 100 nM Dau),CF release (leakage) from negatively charged LUVs [9]
internalized nearly to the same extent,50.68,5.02,0.85,–,–,–,"K-GLRKRLRKFRNKIKEK [CB1-sC18, sC18 conjugate bearing one meta-carborane (CB) cluster]",only a weak red signal,lowest cytotoxic effect,did not alter the cytotoxicity of Dau,did not exhibit any effect,–,–,–
highest,56.30,21.68,0.98,internalized the most,43.45 ± 1.15,0.73,"KKKK-GLRKRLRKFRNKIKEK [CB4-sC18, sC18 conjugate bearing four meta-carborane clusters]",strong red intracellular signals,–,did not alter the cytotoxicity of Dau,–,highest leakage rate towards both tested model systems,slightly increased,highest leakage rate

# From paper PMC8709211, “Improving Membrane Activity and Cargo Delivery Efficacy of a Cell-Penetrating Peptide by Loading with Carboranes” (Pharmaceutics, 2021)
